This note sets out measurements from patent US8921107B2, “Method for differentiating human neural progenitor cells into dopaminergic neurons, and medium for differentiation thereof” (College of Medicine Pochon Cha University Industry-Academic …, priority 2010, dated 2014).

SMILES strings stand for the structures. Entries after “also recorded” stand apart in the source; their conditions may differ.

Assay [1] has as its system human neural progenitor cells (hNPCs). Briefly: Differentiation of hNPCs under hypoxia or normoxia; TH expression (FIG. 5). The assay is classed as cell-based. Particulars: NB medium with 2% B-27, 10 μM forskolin, 100 μM fusaric acid, 100 μM db-cAMP; 3% versus 21% oxygen partial pressure. Here is the method: hNPCs were proliferated in a DMEM/F12 (1:1) Glutamax medium, and then differentiated in a Neurobasal (NB) medium (Invitrogen) containing 2% of B-27, 10 μM of forskolin, 100 μM of fusaric acid, and 100 μM of db-cAMP, under the hypoxia condition (3% of oxygen partial pressure) or the normoxia condition (21% of oxygen partial pressure). After induction of the differentiation, the expression levels of TH were measured (FIG. 5).

Assay [2] has the same test system. Kind of assay: Substitution potential for SHH and FGF8 as differentiation-inducing agents; TH expression (FIG. 4). It counts as cell-based. Here is the method: In order to evaluate substitution potential for the expensive SHH and FGF8 that are of limited use as a differentiation-inducing agent, hNPCs were proliferated in a DMEM/F12 (1:1) Glutamax medium. After induction of the differentiation in a Neurobasal (NB) medium (Invitrogen) using 2% of B-27, 200 ng/ml of SHH, 25 ng/ml of FGF8, 10 μM of forskolin, 100 μM of fusaric acid, and 100 μM of db-cAMP, the expression levels of TH were measured (FIG. 4).

The subject of assay [3] is TH-expressing cells (dopaminergic neurons) differentiated from hNPCs. Kind of assay: Neuroprotective effect: differentiation induced in the presence of MPP (FIG. 6). The assay is classed as cell-based, human. From the text:
It is known that 1-methyl-4-phenylpyridium (MPP) induces cytotoxicity on dopaminergic neurons. Therefore, we evaluated functions of fusaric acid during the differentiation, through inducing differentiation in the presence of MPP (FIG. 6).

The subject of assay [4] is human neural progenitor cells (hNPCs). Briefly: Differentiation of hNPCs into dopaminergic neurons in media with various additives; TH and Tuj1 counted with DAPI staining (FIG. 1). It counts as cell-based. Here is the method:
For dopaminergic differentiation, hNPCs were plated onto a culture dish pre-coated with 15 μg/ml of poly-L-ornithine and 4 μg/ml of fibronectin at a density of 30,000 cells/cm^2; and after 2 or 3 days the cells were cultured in a NB medium comprising differentiation-inducing agents such as 2% of B27 minus-AO supplement (GIBCO), 10 μM of forskolin, 1 mM of db-cAMP and […] of fusaric acid, at 37° C. for 7 days, unless otherwise described.
hNPCs were washed with PBS three times and then fixed with 4% paraformaldehyde in PBS for 10 minutes. The cells were washed with PBS three times and then blocked by reacting with 3% Normal goat serum, 0.2% Triton X-100 and 1% BSA in PBS at room temperature for 1 hour. […]
hNPCs were differentiated into dopaminergic neurons in media obtained by adding interleukin 1 beta, db-cAMP, and fusaric acid (Fus), in various concentrations and combinations, to a Neurobasal medium [differentiation medium (DM) control]. TH (a dopaminergic neuron marker) and Tuj1 (a neural marker) were measured through the DAPI staining (FIG. 1).

Assay [5] shares this test system. Kind of assay: Differentiation of hNPCs in NB medium with or without 100 μM fusaric acid; TH and Tuj1 expression, immunocytochemistry and RT-PCR (FIGS. 2, 3). The assay is classed as cell-based. The following applies: 100 μM fusaric acid added to NB medium with 2% B-27 minus-AO, 10 μM forskolin, 1 mM db-cAMP, versus without. Here is the method:
Total cellular RNAs were extracted from the hNPC, using Trizol and chloroform. cDNAs were synthesized from 500 ng of the total RNAs, using RNA Superscript II RTase, Oligo-d(T) primers, DTT and dNTPs, according to the manufacturer's protocol. The PCR was performed in a final volume of 20 μl containing 1 μl of cDNA and 1 μl of 10 pM primers, using a SYBR-Green mixture. The expressions of TH, DAT, GFAP, Nurr1, Tuj1, and Lmx1a were analyzed, using RPL22 as an internal control. The quantitative real-time PCR was performed using the LightCycler System. The amplification was monitored and analyzed through measuring the binding of the fluorescent dye SYBR Green to double-stranded DNA. The target DNAs were amplified by performing total 40 cycles, under the conditions at 95° C. for 10 seconds, at 60° C. for 10 seconds, at 72° C. for 20 seconds. Final extension was performed at 72° C. for 10 minutes. Results were expressed relative to the gene RPL-22 by comparative Ct method. The primers used in the PCR are described in Table 1. […]
hNPCs were proliferated in a DMEM/F12 (1:1) Glutamax medium, and then differentiated to neurons in a Neurobasal (NB) medium containing 2% of B-27 minus-AO supplement (GIBCO), 10 μM of forskolin, and 1 mM of db-cAMP, along with or without 100 μM of fusaric acid. After induction of the differentiation, the expression levels of TH and Tuj1 were measured (FIG. 2).

[6] abbreviates: differentiation in medium containing fusaric acid, in the presence of MPP.

Take `CCCCc1ccc(C(=O)O)nc1` [fusaric acid, 5-butylpicolinic acid]: in assay [1], the “differentiation into dopaminergic neurons (TH expression), hypoxia versus normoxia” value is reported as “differentiated more efficiently into dopaminergic neurons in hypoxia than in normoxia”. In addition, in assay [2] (100 μM fusaric acid added in addition to 200 ng/ml SHH and 25 ng/ml FGF8), the “differentiation into dopaminergic neurons (TH expression)” value was “more increased”. The “differentiation into dopaminergic neurons (TH expression)” value in assay [2] (100 μM fusaric acid instead of SHH and FGF8, NB medium, 2% B-27, 10 μM forskolin, 100 μM db-cAMP) was “higher differentiation potential into dopaminergic neurons; also recorded: differentiated most effectively into dopaminergic neurons”. The neuroprotective activity entry in assay [3] (conclusion from FIG. 6, MPP treatment) is reported as “has neuroprotective activity”. Also, in assay [3] (setting [6]), the “expression of Tuj1 under MPP treatment” value is listed as “relatively more expressed” and the “survival of TH-expressing cells under MPP treatment” value is recorded as “more TH-expressing cells survived”. The “expression levels of TH and Tuj1 (differentiation potential)” value in assay [4] (culture medium containing db-cAMP and fusaric acid, compared with other combinations (interleukin 1 beta, db-cAMP, fusaric acid) in Neurobasal medium) was “highest expression levels of TH and Tuj1”. Besides, the “differentiation potential by concentration” value in assay [4] (db-cAMP and fusaric acid each at 100 μM) was “the highest differentiation potential was obtained”. Also, in assay [5], the “expression of TH (dopaminergic neuron marker)” value is listed as “remarkably high expressed” and the “expression of Tuj1 (neuronal marker)” value is recorded as “also increased”.
